In this experiment the test system is nude mice, LX-1 lung xenograft intrarenal, tumor weight T/C. In words: NCI In Vivo Anticancer Drug Screen. Data for tumor model Human Lung LX-1 Xenograft (intrarenal inoculation) in NU/NU Swiss (nude) mice. The settings on record: endpoint: mean tumor weight change, higher = larger tumour. The essentials:
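Tumor-bearing mice receive test compound or vehicle; tumor size is then measured in each group. The treated value is divided by the vehicle value to give T/C.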
(In general: Xenograft models place foreign cells or tissue in a host animal.)

Setting [1] is: dose: 300.0 mg/kg/injection, schedule: Q04DX003 (sc), vehicle: saline with Tween-80.
Setting [2] is: dose: 600.0 mg/kg/injection, schedule: Q04DX003 (sc), vehicle: saline with Tween-80.
Where [3] appears, read: dose: 2400.0 mg/kg/injection, schedule: Q04DX003 (sc), vehicle: saline with Tween-80.
Setting [4] is: dose: 150.0 mg/kg/injection, schedule: Q04DX003 (sc), vehicle: water.

Values joined by “and” are separate entries in the source; they are usually repeats but may differ in a detail not shown here. Equal entries are not always repeated. Records with an inconclusive call do not appear.

For `CC(C)(C)N1CC1CNC(=O)C(=O)NCC1CN1C(C)(C)C` (configuration not stated), the T/C by setting is: (dose: 6.25 mg/kg/injection, schedule: Q04DX003 (sc), vehicle: saline with Tween-80) 87 % of control; (dose: 12.5 mg/kg/injection, schedule: Q04DX003 (sc), vehicle: saline with Tween-80) 76 % of control; (dose: 25.0 mg/kg/injection, schedule: Q04DX003 (sc), vehicle: saline with Tween-80) 70 % of control.
In the case of `O=S1(=O)C=C(c2ccccc2)C(c2ccccc2)=C1`, the T/C is 59 % of control (dose: 75.0 mg/kg/injection, schedule: Q04DX003 (sc), vehicle: saline with Tween-80); 81 % of control (dose: 150.0 mg/kg/injection, schedule: Q04DX003 (sc), vehicle: saline with Tween-80); 59 % of control under setting [1]; 71 % of control under setting [2].
`O=NN(CCCl)C(=O)NCCO`: the T/C (dose: 3.12 mg/kg/injection, schedule: Q04DX003 (sc), vehicle: water) is 49 % of control and 65 % of control.
As for `O=CC(O)C(O)C(O)C(O)C(=O)O.[NH-]C1CCCCC1[NH-].[Pt+2]` (configuration not stated), the T/C (dose: 9.38 mg/kg/injection, schedule: Q04DX003 (sc), vehicle: suspension in saline) is 39 % of control and the T/C (dose: 18.75 mg/kg/injection, schedule: Q04DX003 (sc), vehicle: suspension in saline) was 46 % of control.
`CC(=O)Nc1ccc(O)c(O)c1`: the T/C under setting [1] was 154 % of control, the T/C under setting [2] was 103 % of control and the T/C under setting [3] is 51 % of control.
Regarding `O=C(O)C1CC(c2ccccc2)=NN1c1ccccc1` (configuration not stated), under setting [4], the T/C was 105 % of control.
Consider `CC1(C)CC23C4COC(=O)C2CCC1C3CC4=O` (configuration not stated), for which the T/C (dose: 150.0 mg/kg/injection, schedule: Q04DX003 (sc), vehicle: DMSO) was 88 % of control; the T/C (dose: 300.0 mg/kg/injection, schedule: Q04DX003 (sc), vehicle: DMSO) was 51 % of control; the T/C (dose: 600.0 mg/kg/injection, schedule: Q04DX003 (sc), vehicle: DMSO) is 67 % of control; the T/C (dose: 1200.0 mg/kg/injection, schedule: Q04DX003 (sc), vehicle: DMSO) was 63 % of control.
Regarding `N=C(N)Sc1ccccn1`, the T/C runs as follows: (dose: 1.25 mg/kg/injection, schedule: Q01DX010 (sc), vehicle: saline) 83 % of control; (dose: 2.5 mg/kg/injection, schedule: Q01DX010 (sc), vehicle: saline) 72 % of control; (dose: 5.0 mg/kg/injection, schedule: Q01DX010 (sc), vehicle: saline) 52 % of control; (dose: 10.0 mg/kg/injection, schedule: Q01DX010 (sc), vehicle: saline) 29 % of control; (dose: 25.0 mg/kg/injection, schedule: Q01DX010 (sc), vehicle: saline) 158 % of control; (dose: 50.0 mg/kg/injection, schedule: Q01DX010 (sc), vehicle: saline) 167 % of control.
Turning to `Cc1c2cc[n+](CCN3CCCCC3)cc2c(C)c2c1[nH]c1ccc(O)cc12`, the T/C is 83 % of control (dose: 50.0 mg/kg/injection, schedule: Q04DX003 (sc), vehicle: suspension in saline) and 68 % of control (dose: 100.0 mg/kg/injection, schedule: Q04DX003 (sc), vehicle: suspension in saline).
As for `Oc1ccccc1C=NCCC[N-]CCCN=Cc1ccccc1O.[Co]`, the T/C runs as follows: (dose: 50.0 mg/kg/injection, schedule: Q01DX010 (sc), vehicle: suspension in saline) 124 % of control; (dose: 100.0 mg/kg/injection, schedule: Q01DX010 (sc), vehicle: suspension in saline) 79 % of control.
For `CO[C@H]1C[C@](C)(O)Cc2cc3c(c(O)c21)C(=O)c1c(O)cc2c(c1C3=O)O[C@@H]1O[C@@]2(C)[C@H](O)[C@@H](N(C)C)[C@@H]1O`, the T/C is 68 % of control (dose: 3.12 mg/kg/injection, schedule: Q01DX010 (sc), vehicle: other); 63 % of control and 70 % of control (dose: 6.25 mg/kg/injection, schedule: Q01DX010 (sc), vehicle: other); 23 % of control (dose: 12.5 mg/kg/injection, schedule: Q01DX010 (sc), vehicle: other).
For `Nc1nc(/C=C(/O)c2ccccc2)c2ncn(C3OC(CO)C(O)C3O)c2n1` (configuration not stated), the T/C reads like this: (dose: 100.0 mg/kg/injection, schedule: Q04DX003 (sc), vehicle: distilled water + Tween-80) 111 % of control; (dose: 200.0 mg/kg/injection, schedule: Q04DX003 (sc), vehicle: distilled water + Tween-80) 100 % of control; (dose: 400.0 mg/kg/injection, schedule: Q04DX003 (sc), vehicle: distilled water + Tween-80) 99 % of control.
For the compound `c1ccc([P+](c2ccccc2)(c2ccccc2)c2ccccc2)cc1`, the T/C runs as follows: (dose: 2.5 mg/kg/injection, schedule: Q04DX003 (sc), vehicle: saline) 93 % of control; (dose: 5.0 mg/kg/injection, schedule: Q04DX003 (sc), vehicle: saline) 107 % of control; (dose: 10.0 mg/kg/injection, schedule: Q04DX003 (sc), vehicle: saline) 71 % of control and 87 % of control.
Take `O=C1OC(C(O)CO)C(O)=C1O` (configuration not stated): the T/C (dose: 400.0 mg/kg/injection, schedule: Q01DX010 (sc), vehicle: saline) was 205 % of control; the T/C (dose: 800.0 mg/kg/injection, schedule: Q01DX010 (sc), vehicle: saline) is 110 % of control; the T/C (dose: 1600.0 mg/kg/injection, schedule: Q01DX010 (sc), vehicle: saline) is 153 % of control.
`O=c1n(CC2CO2)c(=O)n(CC2CO2)n1CC1CO1` (configuration not stated): the T/C (dose: 12.5 mg/kg/injection, schedule: Q04DX003 (sc), vehicle: saline) is 74 % of control and the T/C (dose: 25.0 mg/kg/injection, schedule: Q04DX003 (sc), vehicle: saline) was 77 % of control.
In the case of `O=c1nc(-c2ccco2)sc(=O)[nH]1`, the T/C is 90 % of control (dose: 150.0 mg/kg/injection, schedule: Q04DX003 (sc), vehicle: Klucel (hydroxypropylcellulose) (HPC)); 68 % of control (dose: 300.0 mg/kg/injection, schedule: Q04DX003 (sc), vehicle: Klucel (hydroxypropylcellulose) (HPC)); 53 % of control (dose: 600.0 mg/kg/injection, schedule: Q04DX003 (sc), vehicle: Klucel (hydroxypropylcellulose) (HPC)); 38 % of control (dose: 1200.0 mg/kg/injection, schedule: Q04DX003 (sc), vehicle: Klucel (hydroxypropylcellulose) (HPC)).
On to `C=C(C)[C@]12CC(C)C34OC(/C=C\C=C\CCCCCCCCC)(O[C@@H]1[C@@H]3[C@@H]1O[C@]1(CO)[C@@H](O)[C@]1(O)C(=O)C(C)=C[C@@H]41)O2` (some centres not stated), for which the T/C is 84 % of control (dose: 3.0 mg/kg/injection, schedule: Q04DX003 (sc), vehicle: distilled water + alcohol); 77 % of control (dose: 6.0 mg/kg/injection, schedule: Q04DX003 (sc), vehicle: distilled water + alcohol); 81 % of control (dose: 12.0 mg/kg/injection, schedule: Q04DX003 (sc), vehicle: distilled water + alcohol).
Take `CNC(=O)c1cccc2c(Nc3ccc(NS(C)(=O)=O)cc3OC)c3cccc(C)c3nc12`: under “dose: 50.0 mg/kg/injection, schedule: Q04DX003 (sc), vehicle: water”, the T/C is 69 % of control.
Turning to `Nc1nc(N)c2c(Cl)c(CNc3ccc(Cl)c(Cl)c3)ccc2n1`, the T/C (dose: 25.0 mg/kg/injection, schedule: Q01DX010 (sc), vehicle: saline with Tween-80) was 111 % of control.
Consider `CCCCCCCCCCCCCCCC(=O)Nc1ccn(C2OC(CO)C(O)C2O)c(=O)n1` (configuration not stated), for which the T/C under setting [4] is 32 % of control and 33 % of control.
Take `c1csc(C[N+]23CN4CN(CN(C4)C2)C3)c1`: the T/C is, setting by setting: (dose: 100.0 mg/kg/injection, schedule: Q04DX003 (sc), vehicle: saline) 112 % of control; (dose: 200.0 mg/kg/injection, schedule: Q04DX003 (sc), vehicle: saline) 100 % of control; (dose: 400.0 mg/kg/injection, schedule: Q04DX003 (sc), vehicle: saline) 92 % of control.
With `CONc1ccn(C2OC(CO)C(O)C2O)c(=O)n1` (configuration not stated), the T/C (dose: 300.0 mg/kg/injection, schedule: Q04DX003 (sc), vehicle: saline) is 62 % of control.
`CCC(=O)Sc1ccccc1C(=O)Nc1ccc(Cl)cc1`: the T/C is, setting by setting: under setting [1], 97 % of control; under setting [2], 91 % of control; under setting [3], 98 % of control.
As for `C[n+]1c(/C=N/NC(N)=S)ccc2ccccc21`, the T/C is, setting by setting: under setting [1], 93 % of control; under setting [2], 101 % of control; (dose: 1200.0 mg/kg/injection, schedule: Q04DX003 (sc), vehicle: saline with Tween-80) 102 % of control.
As for `C=CCNc1ccc(C)cc1`, the T/C runs as follows: (dose: 12.5 mg/kg/injection, schedule: Q01DX010 (sc), vehicle: Klucel (hydroxypropylcellulose) (HPC)) 98 % of control; (dose: 25.0 mg/kg/injection, schedule: Q01DX010 (sc), vehicle: Klucel (hydroxypropylcellulose) (HPC)) 171 % of control; (dose: 100.0 mg/kg/injection, schedule: Q01DX010 (sc), vehicle: Klucel (hydroxypropylcellulose) (HPC)) 107 % of control; (dose: 200.0 mg/kg/injection, schedule: Q01DX010 (sc), vehicle: Klucel (hydroxypropylcellulose) (HPC)) 42 % of control; (dose: 400.0 mg/kg/injection, schedule: Q01DX010 (sc), vehicle: Klucel (hydroxypropylcellulose) (HPC)) 72 % of control.

(Values after PubChem BioAssay AID264 (DTP/NCI, 2004).)
